Experimental data as given in publication PMC8139662 (Journal of Virology, 2021).
Several values for one entry are separate records, joined by “and”; a condition that tells them apart may be missing. Equal values may be shown once. Read-outs that look alike come from different tables or passages of the source.

Tests used:
SARS-CoV-2 USA-WA1/2020 [1] = experiment: Time-of-drug-addition assay in A549+ACE2 cells; format: cell-based; details: A549+ACE2, USA-WA1/2020
SARS-CoV-2 [2] = details: Vero E6 cells; cited from earlier work
[3] = system: SARS-CoV-2 USA/NYU-VC-003/2020; format: cell-based
SARS-CoV-2 USA-WA1/2020 [4] = format: cell-based; details: for protection from virus-induced CPE: at 1 μM (PF-00835231: 1 μM and above); for protection from ring syncytium formation (CPE): at 0.33 μM and above; for protection from ring syncytium formation (CPE) / overall number of infected foci: microscopy; for overall number of infected foci: A549+ACE2, drug treatment
[5] = system: polarized human airway epithelial cultures (HAEC)
BCi-NS1.1 cells = details: 48 h, dose range up to 10 μM
SARS-CoV-2 USA-WA1/2020 [6] = format: cell-based; details: for SARS-CoV-2 infectious titers in apical washes: 10 μM basolateral, washes every 12 h up to 72 h; for number of infected (N-expressing) cells: 10 μM, 72-h endpoint
[7] = system: panel of diverse coronavirus 3CL^pro; details: alpha-, beta- and gammacoronavirus 3CLpro panel; cited from earlier work
SARS-CoV-2 [8] = details: PF-00835231 with remdesivir, in vitro; cited from earlier work
in vitro = details: human
COVID-19 patients = details: patients with more advanced infection, i.v.; cited from earlier work
[9] = PF-00835231 versus GC-376 set (Table 2)

CC(C)C[C@H](NC(=O)OCc1ccccc1)C(=O)N[C@@H](CC1CCNC1=O)C(O)S(=O)(=O)[O-].[Na+] (stereo partly drawn) [GC-376, reference compound]
minimum treatment dose that led to undetectable infection levels (SARS-CoV-2 USA-WA1/2020 [1]): 10 µM | CC50 (A549^+ACE2 cells): > 10 µM | EC50 (SARS-CoV-2 [2]): 900 nM | EC90 [3]: 2730 nM | EC50 [3, 9]: 529 nM | EC90 (SARS-CoV-2 USA-WA1/2020 [4]): 4.55 µM and 5.25 µM | number and size of viral foci (SARS-CoV-2 USA-WA1/2020 [4]; 1 μM, A549+ACE2): decreased the number and size of viral foci | protection from virus-induced CPE (SARS-CoV-2 USA-WA1/2020 [4]): unable to protect cells from virus-induced CPE

COc1cccc2[nH]c(C(=O)N[C@@H](CC(C)C)C(=O)N[C@@H](C[C@@H]3CCNC3=O)C(=O)CO)cc12 [PF-00835231]
minimum treatment dose that led to undetectable infection levels (SARS-CoV-2 USA-WA1/2020 [1]): 3 µM | CC50 (A549^+ACE2 cells): > 10 µM | effect on morphology of HAEC (histology) [5]: Neither drug caused measurable adverse effects on the morphology of the cultures | ATP levels (cell viability) (BCi-NS1.1 cells): did not detect a decrease in ATP | SARS-CoV-2 infectious titers in apical washes (SARS-CoV-2 USA-WA1/2020 [6]): viral titers below the limit of detection at most time points | number of infected (N-expressing) cells (SARS-CoV-2 USA-WA1/2020 [6]): the number of infected cells was significantly reduced | change in antiviral efficacy when blocking MDR1 (SARS-CoV-2 USA-WA1/2020 [6]; […], HAEC, 0.025 or 0.5 μM PF-00835231): no changes in antiviral efficacy when blocking MDR1 activity | inhibition of 3CLpro [7]: potent inhibition | EC50 (SARS-CoV-2 [2]): 270 nM | antiviral activity against SARS-CoV-2 (SARS-CoV-2 [2]): high micromolar levels | effect of inhibiting MDR1 function on antiviral efficacy (SARS-CoV-2 [2]): significantly increased antiviral efficacy | combination effect with remdesivir in inhibiting SARS-CoV-2 (SARS-CoV-2 [8]): significant synergistic effects | EC90 [3]: 591 nM and 1170 nM | EC50 [3, 9]: 326 nM | EC50 ([3]; PF-00835231 versus remdesivir set (Table 1), n = 3): 184 nM | change in antiviral efficacy when blocking MDR1 (SARS-CoV-2 USA-WA1/2020 [4]): no changes in antiviral efficacy when blocking MDR1 activity | protection from ring syncytium formation (CPE) (SARS-CoV-2 USA-WA1/2020 [4]; A549+ACE2): fully protected | protection from virus-induced CPE (SARS-CoV-2 USA-WA1/2020 [4]): fully protected | overall number of infected foci (SARS-CoV-2 USA-WA1/2020 [4]): decreased the overall number of infected foci

CCC(CC)COC(=O)[C@H](C)N[P@](=O)(OC[C@H]1O[C@@](C#N)(c2ccc3c(N)ncnn23)[C@H](O)[C@@H]1O)Oc1ccccc1 [remdesivir, reference compound]
CC50 (in vitro): > 10 µM | effect on morphology of HAEC (histology) [5]: Neither drug caused measurable adverse effects on the morphology of the cultures | effect on transepithelial resistance (TEER) over time [5]: negatively impacted TEER over time, albeit not statistically significantly compared to untreated cultures | ATP levels (cell viability) (BCi-NS1.1 cells): caused a reduction in ATP levels compared to carrier control, albeit not statistically significantly | SARS-CoV-2 infectious titers in apical washes (SARS-CoV-2 USA-WA1/2020 [6]): viral titers below the limit of detection at most time points | number of infected (N-expressing) cells (SARS-CoV-2 USA-WA1/2020 [6]): the number of infected cells was significantly reduced | patients with benefit (COVID-19 patients): 68% | protection from ring syncytium formation (CPE) (SARS-CoV-2 USA-WA1/2020 [4]; A549+ACE2): fully protected | overall number of infected foci (SARS-CoV-2 USA-WA1/2020 [4]): decreased the overall number of infected foci
